Experimental data reported in publication doi:10.1101/2020.09.01.277368v1, “Disulfiram inhibits M. tuberculosis growth by altering methionine pool, redox status and host-immune response” (biorxiv, 2020).

What follows are compounds tested against T1, MetA (HSAT, homoserine acetyl transferase, Rv3341) (Mycobacterium tuberculosis, UniProt P9WJY9) (assay: endpoint DTNB CoA release assay).
T1 construct: gene metXA
Type: biochemical

T1 sequence (P9WJY9 whole entry, looked up): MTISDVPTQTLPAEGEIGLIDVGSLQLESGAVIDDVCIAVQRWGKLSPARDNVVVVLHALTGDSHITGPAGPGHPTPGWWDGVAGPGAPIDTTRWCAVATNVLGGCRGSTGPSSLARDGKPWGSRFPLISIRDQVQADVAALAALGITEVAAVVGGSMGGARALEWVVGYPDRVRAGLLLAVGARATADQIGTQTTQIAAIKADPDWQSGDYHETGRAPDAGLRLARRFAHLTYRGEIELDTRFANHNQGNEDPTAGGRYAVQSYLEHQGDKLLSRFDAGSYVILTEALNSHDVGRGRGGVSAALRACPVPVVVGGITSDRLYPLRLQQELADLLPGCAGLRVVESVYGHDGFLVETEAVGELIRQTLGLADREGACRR

| SMILES | % inhibition at 100 μM [%] |
| --- | --- |
| Oc1cc(CNC2CCCCC2)c(O)cc1CNC1CCCCC1 [NSC48443] | > 50 |
| COc1cc(-c2ccc(Nc3ccccc3C(=O)O)c(OC)c2)ccc1Nc1ccccc1C(=O)O [NSC73735] | > 50 |
| CCOC(=O)/C(C#N)=C1\SS/C(=C(/C#N)C(=O)OCC)S1 [NSC98363] | > 50 |
| O=Nc1c(-c2cccc([N+](=O)[O-])c2)nc2ncccn12 [NSC369066] | > 50 |
| Cc1ccc(S(=O)(=O)SC/C=C/CSS(=O)(=O)c2ccc(C)cc2)cc1 [NSC624158] | > 50 |
| C/C(=N\NC(=S)N(C)C)c1ccccn1.[Cu][Br] [NSC635448] | > 50 |
| Oc1cc(-n2cccn2)c(O)cc1-n1cccn1 [NSC645987] | > 50 |
